Patent US4520101A (priority 1983, dated 1985)
Values joined by “and” are separate entries in the source; they are usually repeats but may differ in a detail not shown here. Identical values can stand only once.

Tested on: Cephalosporium acremonium (a high ceph C-producing mutant strain which also produces desacetyl ceph C)
Type: cell-based

Structure (SMILES): CCOP(=O)(OCC)C(C)=O [diethyl acetyl phosphonate]
- Ceph C: 9285 µg/g and 9665 µg/g
- Des C/Total Ceph Nucleus (Ceph C + Des Ceph C): 4.52% and 4.40%
- Des Ceph C: 440 µg/g and 445 µg/g
